Where two headings read alike, the source gives them in different places.

The subject of one data set is MDA-MB-231 cells. Kind of data set: Cell viability assay (CCK-8) MDA-MB-231. It counts as cell-based. The conditions noted are these: Homo sapiens, 72 h incubation, read-out: IC50 against MDA-MB-231. How it is done:
(§1) The MDA-MB-231 and HepG2 cell lines, representing triple-negative breast cancer and hepatocellular carcinoma, were selected to evaluate the inhibitory effects of LDHA and LDHB inhibitors. […] Following 72 h of incubation, 10 µL of CCK-8 reagent was added to each well, and cells were further incubated for 1–4 h. Absorbance was measured at 450 nm with a reference wavelength of 600 nm for background correction. Data from three independent experiments (each with three technical replicates) were normalized to the vehicle control (100% viability) and medium-only wells (0% viability).

Data set [1] concerns the target T1, recombinant LDHA (Homo sapiens, UniProt P00338). Briefly: LDHA enzyme activity inhibition assay (NADH oxidation, 340 nm). Details: His-tag; made in house; host or cells: E. coli BL21(DE3). The data set is classed as biochemical. The conditions noted are these: for LDH inhibitory activity, LDHA compared with LDHB (inhibition rates) / inhibition rate against LDHA (selection for dose-response): components assayed at 10 µM and 40 µM; for LDH inhibitory activity, LDHA compared with LDHB (inhibition rates): Figure 5.

For another data set, the system named is HepG2 cells. Kind of data set: Cell viability assay (CCK-8) HepG2. The data set is classed as cell-based. To be noted: Homo sapiens, 72 h incubation, read-out: IC50 against HepG2. Here is the method: as §1
Data set [2] concerns the target T2, recombinant LDHB (Homo sapiens, UniProt P07195).
T2 construct: His-tag; made in house; host or cells: E. coli BL21(DE3)
Briefly: LDHB enzyme activity inhibition assay (NADH oxidation, 340 nm). The data set is classed as biochemical. The conditions noted are these: for IC50: 0.08 mM sodium pyruvate, 0.04 mM NADH, 10 min pre-incubation, 30 °C, read-out: IC50 against LDHB; for inhibition rate against LDHB (selection for dose-response): components assayed at 10 µM and 40 µM. Here is the method: The Z’ factor (Z’ = 1 − [3 × (σₚ + σₙ)]/|μₚ − μₙ|) was used to evaluate the robustness of the screening platform, where σ represents the standard deviation, μ represents the mean value, p denotes enzyme activity, and n denotes the background signal. […] (2) The enzyme-inhibitor mixture was pre-incubated for 10 min at room temperature. […] (4) At 30 °C, the enzymatic reaction was monitored at 340 nm for 20 min.
For the enzyme activity assay, the concentrations of the R. crenulata extract were 20 µg/mL, while the 19 isolated components was assayed at 10 µM and 40 µM.

The target of data set [3] is T2, recombinant LDHB. Briefly: Michaelis-Menten kinetics of recombinant LDHB. It counts as biochemical. To be noted: pyruvate varied with NADH 0.6 mM; NADH varied with sodium pyruvate 1 mM. Here is the method: (§2) Based on comprehensive literature evidence and systematic experimental validation, we established optimized enzymatic assay platforms for LDHA and LDHB inhibitor screening. In the platforms, 60 µL of purified enzyme solution (1.95 nM final concentration) was loaded into 96-well plates, followed by 140 µL of a 1:1 (v/v) pyruvate/NADH substrate mixture. Reactions were conducted in 0.1 M Tris-HCl buffer (with 10% glycerol, pH 7.4) at 30 °C, and NADH oxidation was kinetically monitored at 340 nm for 20 min. To determine the kinetic parameters, the optimization protocol for LDHA was performed as follows: with NADH fixed at 0.6 mM while varying sodium pyruvate (0.02–2.5 mM) to determine the optimal concentration; and with sodium pyruvate fixed at 1 mM while varying NADH (0.01–0.7 mM) to determine the optimal concentration. Similarly, the optimization protocol for LDHB was performed as follows: with NADH fixed at 0.6 mM while varying sodium pyruvate (0.01–1.05 mM) to determine the optimal concentration; and with sodium pyruvate fixed at 1 mM while varying NADH (0.01–0.7 mM) to determine the optimal concentration. The initial reaction rates were derived by analyzing the progress curves with OriginPro 2023 (OriginLab Co., Northampton, MA, USA). Kinetic parameters (Km and Vmax) were derived by nonlinear regression analysis of the Michaelis-Menten equation using GraphPad Prism 8.0 (GraphPad Software, San Diego, CA, USA).

Data set [4] deals with T1, recombinant LDHA. Kind of data set: Michaelis-Menten kinetics of recombinant LDHA. To be noted: pyruvate varied with NADH 0.6 mM, NADH varied with sodium pyruvate 1 mM.
Experimental: (§3) Based on comprehensive literature evidence [41, 61, 62, 63, 64] and systematic experimental validation, we established optimized enzymatic assay platforms for LDHA and LDHB inhibitor screening. […] Reactions were conducted in 0.1 M Tris-HCl buffer (with 10% glycerol, pH 7.4) at 30 °C, and NADH oxidation was kinetically monitored at 340 nm for 20 min. […] Kinetic parameters (Km and Vmax) were derived by nonlinear regression analysis of the Michaelis-Menten equation using GraphPad Prism 8.0 (GraphPad Software, San Diego, CA, USA).
Data set [5] deals with CC(=O)C(=O)O. Briefly: purified protein, by the assay type. To be noted: other: pyruvate varied with NADH 0.6 mM; NADH varied with sodium pyruvate 1 mM; pH 7.4; 30.0 °C.
Experimental: as §3
The subject of data set [6] is T3, CC(=O)C(=O)O.
T3 construct: His-tag; made in house; host or cells: E. coli BL21(DE3)
Kind of data set: Michaelis-Menten kinetics of recombinant LDHB. To be noted: other: pyruvate varied with NADH 0.6 mM; NADH varied with sodium pyruvate 1 mM; pH 7.4; 30.0 °C. It counts as biochemical, homo sapiens. How it is done:
as §2

The mark [7] stands for this setting: 0.16 mM sodium pyruvate, 0.04 mM NADH, 10 min pre-incubation, 30 °C, read-out: IC50 against LDHA.

T2 sequence (P07195 whole entry): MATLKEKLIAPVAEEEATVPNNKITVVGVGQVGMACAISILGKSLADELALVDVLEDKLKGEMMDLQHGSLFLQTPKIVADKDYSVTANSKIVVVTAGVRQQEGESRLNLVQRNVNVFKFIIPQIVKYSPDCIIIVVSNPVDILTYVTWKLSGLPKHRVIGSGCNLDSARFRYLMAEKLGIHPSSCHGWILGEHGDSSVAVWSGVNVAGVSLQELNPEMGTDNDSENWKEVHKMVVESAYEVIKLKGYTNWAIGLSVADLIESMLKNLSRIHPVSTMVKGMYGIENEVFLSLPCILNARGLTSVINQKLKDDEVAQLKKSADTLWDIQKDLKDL

Take `O=c1oc2c(O)c(O)cc3c(=O)oc4c(O)c(O)cc1c4c23` [Ellagic acid]: the IC50 was found to be 54.3 ± 2.5 µM in the data set on MDA-MB-231 cells and 59 ± 3 µM in the data set with HepG2 cells. The “LDH inhibitory activity, LDHA compared with LDHB (inhibition rates)” value at recombinant LDHA [1] was “stronger inhibition against LDHA than LDHB”.
For the compound `O=C(O[C@@H]1Cc2c(O)cc(O)cc2O[C@@H]1c1ccc(O)c(O)c1)c1cc(O)c(O)c(O)c1` [Epicatechin gallate, epicatechin gallate], the IC50 with MDA-MB-231 cells was determined as 23.5 ± 1 µM; on recombinant LDHA [1] (setting [7]) it was 2.27 ± 0.23 µM; in the data set on HepG2 cells, 33.8 ± 1 µM. For the same compound, at recombinant LDHA [1], the “inhibition rate against LDHA (selection for dose-response)” value is reported as “exceeding 80%”. In addition, on recombinant LDHA [1], the “LDH inhibitory activity, LDHA compared with LDHB (inhibition rates)” value is reported as “stronger inhibition against LDHA than LDHB”.
Consider `O=c1c(O)c(-c2ccc(O)cc2)oc2cc(O)cc(O)c12` [Kaempferol, kaempferol], for which the concentration for half-maximal inhibition (IC50) with MDA-MB-231 cells came to 37.5 ± 2 µM; at recombinant LDHA [1] (setting [7]) it was 0.7 ± 0.13 µM; in the data set on HepG2 cells it was 50 ± 2.5 µM; on recombinant LDHB [2] it was 8.69 ± 0.85 µM. For the same compound, on recombinant LDHA [1] (LDHA vs LDHB), the “potency in inhibiting LDHA relative to LDHB (IC50 comparison)” value is given as “more than 10 fold”. Moreover, at recombinant LDHA [1], the “inhibition rate against LDHA (selection for dose-response)” value was “exceeding 80%”. In addition, the “LDH inhibitory activity, LDHA compared with LDHB (inhibition rates)” value on recombinant LDHA [1] is given as “stronger inhibition against LDHA than LDHB”. In addition, on recombinant LDHB [2], the “inhibition rate against LDHB (selection for dose-response)” value was “exceeding 80%”.
Consider `O=c1cc(-c2ccc(O)c(O)c2)oc2cc(O)cc(O)c12` [Luteolin, luteolin], for which, in the data set on MDA-MB-231 cells, the IC50 was found to be 25.1 ± 1 µM. On recombinant LDHA [1], the “inhibition rate against LDHA (selection for dose-response)” value is “exceeding 80%” and the “LDH inhibitory activity, LDHA compared with LDHB (inhibition rates)” value is given as “stronger inhibition against LDHA than LDHB”. In the data set on HepG2 cells, the IC50 stood at 74 ± 3.5 µM. Further, at recombinant LDHB [2], the IC50 is 2.71 ± 0.39 µM and the “inhibition rate against LDHB (selection for dose-response)” value is reported as “exceeding 80%”.
For the compound `NC(=O)C1=CN([C@@H]2O[C@H](COP(=O)([O-])OP(=O)([O-])OC[C@H]3O[C@@H](n4cnc5c(N)ncnc54)[C@H](O)[C@@H]3O)[C@@H](O)[C@H]2O)C=CC1.[Na+].[Na+]` [NADH, β-Nicotinamide adenine dinucleotide disodium salt], at recombinant LDHB [3], the Km stood at 40 ± 5 µM and the “Vmax of LDHB” value worked out at 10.05 ± 0.33 µM/min. Moreover, the “Vmax of LDHA” value at recombinant LDHA [4] was determined as 15.37 ± 0.57 µM/min. Further, at recombinant LDHA [4] (read-out: Km of LDHA), the Km is 39 ± 6 µM.
Turning to `O=c1c(O)c(-c2ccc(O)c(O)c2)oc2cc(O)cc(O)c12` [Quercetin], the IC50 in the data set on MDA-MB-231 cells amounted to 27.3 ± 1.5 µM; at recombinant LDHA [1] (setting [7]) it was 0.27 ± 0.02 µM; in the data set with HepG2 cells it was 54.8 ± 3 µM; on recombinant LDHB [2], 0.87 ± 0.07 µM. Besides, the “inhibition rate against LDHA (selection for dose-response)” value at recombinant LDHA [1] is given as “exceeding 80%”. In addition, the “LDH inhibitory activity, LDHA compared with LDHB (inhibition rates)” value on recombinant LDHA [1] was “stronger inhibition against LDHA than LDHB”. Besides, the “inhibition rate against LDHB (selection for dose-response)” value on recombinant LDHB [2] is “exceeding 80%”.
For `Cc1cc2c(C(C)C)c(O)c(O)c(C=O)c2c(O)c1-c1c(C)cc2c(C(C)C)c(O)c(O)c(C=O)c2c1O` [gossypol, reference compound], the IC50 at recombinant LDHA [1] was 0.19 ± 0.05 µM.
For the compound recombinant LDHA (Homo sapiens), the Km in the data set on CC(=O)C(=O)O [5] was determined as 160 ± 27 µM.
Consider recombinant LDHB (Homo sapiens), for which the Km with CC(=O)C(=O)O [6] came out at 74 ± 19 µM.

A word on the IC50: it is the concentration that gives 50% inhibition. As a reminder, the Km is the concentration of substrate that gives half-maximal velocity.

For the origin of these results see article PMC12610713, “Inhibition Profiling of Rhodiola crenulata on Lactate Dehydrogenase Isoenzymes” (Molecules, 2025).
